Measurements from the supplement of paper PMC5908809.

Assays:
[1] = tested on: normal NK cells expanded with K562-aAPC; experiment: drug sensitivity score (DSS) (DSS units); higher = more sensitive; extreme values may be limits of the assay; conditions: 72 h; IL-2 2.5 ng/mL
Experimental: (§1)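 Drug sensitivity and resistance testing on K562-aAPC-expanded normal NK cells: 5 concentrations (10-fold steps over a 10,000-fold range), 72 h at 37 °C, viability by CellTiter-Glo normalised to DMSO and benzethonium chloride controls; DSS from the fitted curve.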

KAI3 (IL-2 2.5 ng/mL) [2] = experiment: percent inhibition of viability; higher = more inhibition; conditions: 72 h
IMC-1 (IL-2 20 ng/mL) [3] = experiment: as above; conditions: 72 h
KHYG-1 (IL-2 2.5 ng/mL) [4] = experiment: as above; conditions: 72 h
DERL-7 (IL-2 2.5 ng/mL) [5] = experiment: as above; conditions: 72 h
[6] = tested on: normal primary NK cells, pool 1 (3 donors) (IL-2 2.5 ng/mL); experiment: as above; conditions: 72 h
NK-92 (IL-2 2.5 ng/mL) [7] = experiment: as above; conditions: 72 h
NKL (IL-2 2.5 ng/mL) [8] = experiment: as above; conditions: 72 h
YT (IL-2 2.5 ng/mL) [9] = experiment: as above; conditions: 72 h
[10] = tested on: normal primary NK cells, pool 3 (3 donors) (IL-2 2.5 ng/mL); experiment: as above; conditions: 72 h
SNK-6 (IL-2 2.5 ng/mL) [11] = experiment: as above; conditions: 72 h
[12] = tested on: normal primary NK cells, pool 1 (3 donors), resting (IL-2 0 ng/mL); experiment: as above; conditions: 72 h
[13] = tested on: normal primary NK cells, pool 2 (3 donors) (IL-2 2.5 ng/mL); experiment: as above; conditions: 72 h
NK-YS (IL-2 2.5 ng/mL) [14] = experiment: as above; conditions: 72 h
KAI3 (IL-2 2.5 ng/mL) [15] = experiment: drug sensitivity score (DSS) (DSS units); higher = more sensitive; extreme values may be limits of the assay; conditions: 72 h
IMC-1 (IL-2 20 ng/mL) [16] = experiment: as above; conditions: 72 h
KHYG-1 (IL-2 2.5 ng/mL) [17] = experiment: as above; conditions: 72 h
DERL-7 (IL-2 2.5 ng/mL) [18] = experiment: as above; conditions: 72 h
[19] = tested on: normal primary NK cells, pool 1 (3 donors) (IL-2 2.5 ng/mL); experiment: as above; conditions: 72 h
NK-92 (IL-2 2.5 ng/mL) [20] = experiment: as above; conditions: 72 h
NKL (IL-2 2.5 ng/mL) [21] = experiment: as above; conditions: 72 h
YT (IL-2 2.5 ng/mL) [22] = experiment: as above; conditions: 72 h
[23] = tested on: normal primary NK cells, pool 3 (3 donors) (IL-2 2.5 ng/mL); experiment: as above; conditions: 72 h
SNK-6 (IL-2 2.5 ng/mL) [24] = experiment: as above; conditions: 72 h
[25] = tested on: normal primary NK cells, pool 1 (3 donors), resting (IL-2 0 ng/mL); experiment: as above; conditions: 72 h
[26] = tested on: normal primary NK cells, pool 2 (3 donors) (IL-2 2.5 ng/mL); experiment: as above; conditions: 72 h
NK-YS (IL-2 2.5 ng/mL) [27] = experiment: as above; conditions: 72 h
[28] = tested on: normal NK cells expanded with K562-aAPC; experiment: percent inhibition of viability; higher = more inhibition; conditions: 72 h, IL-2 2.5 ng/mL
Experimental: as §1

Cc1ccc(C(=O)N(CCCN)[C@@H](c2oc3cc(Cl)ccc3c(=O)c2Cc2ccccc2)C(C)C)cc1 (max concentration tested 100 nM)
Conditions	drug sensitivity score
DERL-7 (IL-2 2.5 ng/mL) [18]	7.54
IMC-1 (IL-2 20 ng/mL) [16]	17.9
KAI3 (IL-2 2.5 ng/mL) [15]	6.54
KHYG-1 (IL-2 2.5 ng/mL) [17]	18.2
NK-92 (IL-2 2.5 ng/mL) [20]	7.14
NK-YS (IL-2 2.5 ng/mL) [27]	13.7
NKL (IL-2 2.5 ng/mL) [21]	14.5
SNK-6 (IL-2 2.5 ng/mL) [24]	15
YT (IL-2 2.5 ng/mL) [22]	4.68
[1]	8.92
[19]	0
[23]	3.16
[25]	0
[26]	1.26

percent inhibition of viability [%]
Conditions	0.01 nM	0.1 nM	1 nM	10 nM	100 nM
DERL-7 (IL-2 2.5 ng/mL) [5]	-6.36	-10.3	-3.04	12.1	100
IMC-1 (IL-2 20 ng/mL) [3]	-7.61	-1.73	0.06	99.8	101
KAI3 (IL-2 2.5 ng/mL) [2]	-6.39	-3.85	-7.56	25.9	57.9
KHYG-1 (IL-2 2.5 ng/mL) [4]	2.63	-2.09	3.33	98.1	108
NK-92 (IL-2 2.5 ng/mL) [7]	-6.69	-0.53	4.14	12.2	92.1
NK-YS (IL-2 2.5 ng/mL) [14]	-1.37	-2.68	5	71.1	80.5
NKL (IL-2 2.5 ng/mL) [8]	7.05	-6.08	0.2	79.2	94.4
SNK-6 (IL-2 2.5 ng/mL) [11]	-16.1	-20.8	5.75	78	91.8
YT (IL-2 2.5 ng/mL) [9]	-0.9	-3.95	-3.98	6.11	67.4
[6]	-6.46	-14.6	7.89	0.13	9.64
[10]	-4.72	-7.26	16.7	13.5	15.5
[12]	-14	-28.1	6.55	-12.4	0.78
[13]	-6.06	-2.94	7.66	13.1	9.78
[28]	0.7	-0.13	0.62	47.5	60.9

CNC(=O)c1ccc(C)c(-n2c(C)cc(OCc3ccc(F)cc3F)c(Br)c2=O)c1 (max concentration tested 1000 nM)
Conditions	drug sensitivity score
DERL-7 (IL-2 2.5 ng/mL) [18]	0
IMC-1 (IL-2 20 ng/mL) [16]	0.02
KAI3 (IL-2 2.5 ng/mL) [15]	4.23
KHYG-1 (IL-2 2.5 ng/mL) [17]	0.02
NK-92 (IL-2 2.5 ng/mL) [20]	1.12
NK-YS (IL-2 2.5 ng/mL) [27]	2.15
NKL (IL-2 2.5 ng/mL) [21]	5.52
SNK-6 (IL-2 2.5 ng/mL) [24]	0
YT (IL-2 2.5 ng/mL) [22]	0.89
[1]	0
[19]	3.24
[23]	0
[25]	0
[26]	0

percent inhibition of viability [%]
Conditions	0.1 nM	1 nM	10 nM	100 nM	1000 nM
DERL-7 (IL-2 2.5 ng/mL) [5]	-0.31	-4.89	-4.27	2.58	1.48
IMC-1 (IL-2 20 ng/mL) [3]	-9.65	-8.9	-7.96	-3.82	12.4
KAI3 (IL-2 2.5 ng/mL) [2]	-0.38	1.93	8.49	20.8	36
KHYG-1 (IL-2 2.5 ng/mL) [4]	-4.44	-7.81	-8.38	-3.53	12.3
NK-92 (IL-2 2.5 ng/mL) [7]	-1.67	-6.84	-3.84	-1.12	28.7
NK-YS (IL-2 2.5 ng/mL) [14]	-6.34	-5.21	0.76	7.92	26.5
NKL (IL-2 2.5 ng/mL) [8]	-10.5	-7	9.32	26.1	43.8
SNK-6 (IL-2 2.5 ng/mL) [11]	-18.8	-0.3	-20.7	-13.9	-14.7
YT (IL-2 2.5 ng/mL) [9]	-3.68	-3.72	-2.87	1.27	21.9
[6]	0.91	0.08	13.3	13.8	17.8
[10]	-6.51	-4.02	4.48	7.49	0.09
[12]	4.88	3.54	13.7	4.12	7.14
[13]	-5.3	-4.39	0.85	-1.04	-5.85
[28]	-9.29	-8.5	-9.81	-3.39	11.1
